Mutagenic call data for four compounds are collected here from PubChem BioAssay AID1259407 (Chemical Carcinogenesis Research Information System (CCRIS), 2018).

Active and inactive are the calls of the source. No rule for the calls is given here.

The series deals with CCRIS mutagenicity, Ames/micronucleus/aberration tests. Nature of the series: CCRIS mutagenicity studies.
Where [1] appears, read: Test System: AMES SALMONELLA TYPHIMURIUM, Strain/Indicator: TA100, Metabolic Activation: NONE, Method: PREINCUBATION
Setting [2] is: Test System: AMES SALMONELLA TYPHIMURIUM, Strain/Indicator: TA1535, Metabolic Activation: NONE, Method: PREINCUBATION
The mark [3] stands for this setting: Test System: AMES SALMONELLA TYPHIMURIUM, Strain/Indicator: TA100, Metabolic Activation: NONE, Method: STANDARD PLATE.
Setting [4] is: Test System: AMES SALMONELLA TYPHIMURIUM, Strain/Indicator: TA100, Metabolic Activation: RAT, LIVER, S-9, AROCLOR 1254, Method: STANDARD PLATE.
[5] abbreviates: Test System: AMES SALMONELLA TYPHIMURIUM, Strain/Indicator: TA1535, Metabolic Activation: NONE, Method: STANDARD PLATE.
Where [6] appears, read: Test System: AMES SALMONELLA TYPHIMURIUM, Strain/Indicator: TA1535, Metabolic Activation: RAT, LIVER, S-9, AROCLOR 1254, Method: STANDARD PLATE.
The mark [7] stands for this setting: Test System: MOUSE LYMPHOMA, Strain/Indicator: L5178Y (TK+/TK-), Metabolic Activation: NONE, Method: SUSPENSION/PLATE.

As for `CC(=O)Nc1cccc(C)c1`, the mutagenic call by setting is: (Test System: AMES SALMONELLA TYPHIMURIUM, Strain/Indicator: TA97, Metabolic Activation: HAMSTER, LIVER, S-9, AROCLOR 1254 (10 OR 30%), Method: PREINCUBATION) “inactive; negative”; (Test System: AMES SALMONELLA TYPHIMURIUM, Strain/Indicator: TA97, Metabolic Activation: NONE, Method: PREINCUBATION) “inactive; negative”; (Test System: AMES SALMONELLA TYPHIMURIUM, Strain/Indicator: TA97, Metabolic Activation: RAT, LIVER, S-9, AROCLOR 1254 (10 OR 30%), Method: PREINCUBATION) “inactive; negative”; (Test System: AMES SALMONELLA TYPHIMURIUM, Strain/Indicator: TA98, Metabolic Activation: HAMSTER, LIVER, S-9, AROCLOR 1254 (10 OR 30%), Method: PREINCUBATION) “inactive; negative”; (Test System: AMES SALMONELLA TYPHIMURIUM, Strain/Indicator: TA98, Metabolic Activation: NONE, Method: PREINCUBATION) “inactive; negative”; (Test System: AMES SALMONELLA TYPHIMURIUM, Strain/Indicator: TA98, Metabolic Activation: RAT, LIVER, S-9, AROCLOR 1254 (10 OR 30%), Method: PREINCUBATION) “inactive; negative”. Also, the mutagenic call by setting is: (Test System: AMES SALMONELLA TYPHIMURIUM, Strain/Indicator: TA100, Metabolic Activation: HAMSTER, LIVER, S-9, AROCLOR 1254 (10 OR 30%), Method: PREINCUBATION) “inactive; negative”; under setting [1], “inactive; negative”; (Test System: AMES SALMONELLA TYPHIMURIUM, Strain/Indicator: TA100, Metabolic Activation: RAT, LIVER, S-9, AROCLOR 1254 (10 OR 30%), Method: PREINCUBATION) “inactive; negative”; (Test System: AMES SALMONELLA TYPHIMURIUM, Strain/Indicator: TA1535, Metabolic Activation: HAMSTER, LIVER, S-9, AROCLOR 1254 (10 OR 30%), Method: PREINCUBATION) “inactive; negative”; under setting [2], “inactive; negative”; (Test System: AMES SALMONELLA TYPHIMURIUM, Strain/Indicator: TA1535, Metabolic Activation: RAT, LIVER, S-9, AROCLOR 1254 (10 OR 30%), Method: PREINCUBATION) “inactive; negative”.

In the case of `COc1cc(Cl)c(Cl)c(Cl)c1O`, the mutagenic call reads like this: (Test System: CHINESE HAMSTER V-79, Strain/Indicator: V-79/6-THIOGUANINE, Metabolic Activation: NONE, Method: STANDARD PLATE) “active; positive”; (Test System: CHINESE HAMSTER V-79, Strain/Indicator: V-79/6-THIOGUANINE, Metabolic Activation: PRIMARY RAT HEPATOCYTES, Method: STANDARD PLATE) “inactive; negative”.

`CCOC(=O)C(Cl)C(C)=O` (configuration not stated): the mutagenic call is, setting by setting: (Test System: AMES SALMONELLA TYPHIMURIUM, Strain/Indicator: TA98, Metabolic Activation: HAMSTER, LIVER, S-9, AROCLOR 1254, Method: STANDARD PLATE) “inactive; negative”; (Test System: AMES SALMONELLA TYPHIMURIUM, Strain/Indicator: TA98, Metabolic Activation: NONE, Method: STANDARD PLATE) “inactive; negative”; (Test System: AMES SALMONELLA TYPHIMURIUM, Strain/Indicator: TA98, Metabolic Activation: RAT, LIVER, S-9, AROCLOR 1254, Method: STANDARD PLATE) “inactive; negative”; (Test System: AMES SALMONELLA TYPHIMURIUM, Strain/Indicator: TA100, Metabolic Activation: HAMSTER, LIVER, S-9, AROCLOR 1254, Method: STANDARD PLATE) “inactive; negative”; under setting [3], “inactive; negative”; under setting [4], “inactive; negative”. Further, the mutagenic call was “inactive; negative” (Test System: AMES SALMONELLA TYPHIMURIUM, Strain/Indicator: TA1535, Metabolic Activation: HAMSTER, LIVER, S-9, AROCLOR 1254, Method: STANDARD PLATE); “inactive; negative” under setting [5]; “inactive; negative” under setting [6]; “inactive; negative” (Test System: AMES SALMONELLA TYPHIMURIUM, Strain/Indicator: TA1537, Metabolic Activation: HAMSTER, LIVER, S-9, AROCLOR 1254, Method: STANDARD PLATE); “inactive; negative” (Test System: AMES SALMONELLA TYPHIMURIUM, Strain/Indicator: TA1537, Metabolic Activation: NONE, Method: STANDARD PLATE); “inactive; negative” (Test System: AMES SALMONELLA TYPHIMURIUM, Strain/Indicator: TA1537, Metabolic Activation: RAT, LIVER, S-9, AROCLOR 1254, Method: STANDARD PLATE). Further, the mutagenic call by setting is: (Test System: AMES SALMONELLA TYPHIMURIUM, Strain/Indicator: TA1538, Metabolic Activation: HAMSTER, LIVER, S-9, AROCLOR 1254, Method: STANDARD PLATE) “inactive; negative”; (Test System: AMES SALMONELLA TYPHIMURIUM, Strain/Indicator: TA1538, Metabolic Activation: NONE, Method: STANDARD PLATE) “inactive; negative”; (Test System: AMES SALMONELLA TYPHIMURIUM, Strain/Indicator: TA1538, Metabolic Activation: RAT, LIVER, S-9, AROCLOR 1254, Method: STANDARD PLATE) “inactive; negative”; under setting [7], “inactive; positive. reevaluation of results: negative”; (Test System: MOUSE LYMPHOMA, Strain/Indicator: L5178Y (TK+/TK-), Metabolic Activation: RAT, LIVER, S-9, AROCLOR 1254, Method: SUSPENSION/PLATE) “active; positive. reevaluation of results: inconclusive”.

In the case of `CC1CO1` (configuration not stated), the mutagenic call (End Point: IN VITRO CHROMOSOMAL ABERRATIONS, Test System: CHL CELLS, Metabolic Activation: NONE) is “active; positive (structural changes)”; the mutagenic call (End Point: IN VITRO CHROMOSOMAL ABERRATIONS, Test System: CHL CELLS, Metabolic Activation: RAT, LIVER, S-9, SODIUM PHENOBARBITAL AND 5,6-BENZOFLAVONE) is “active; positive (structural changes)”; the mutagenic call (End Point: IN VITRO CHROMOSOMAL ABERRATIONS, Test System: CHO CELLS, Metabolic Activation: NONE) was “active; positive; weak response”; the mutagenic call (Test System: AMES SALMONELLA TYPHIMURIUM, Strain/Indicator: TA100, Metabolic Activation: HAMSTER, LIVER, S-9, AROCLOR 1254 (10%), Method: PREINCUBATION) is “active; positive”; the mutagenic call (Test System: AMES SALMONELLA TYPHIMURIUM, Strain/Indicator: TA100, Metabolic Activation: NONE, Method: FLASK VAPORIZATION) is “active; positive”; the mutagenic call under setting [1] was “active; positive”. The mutagenic call is “active; positive” under setting [3]; “active; positive” (Test System: AMES SALMONELLA TYPHIMURIUM, Strain/Indicator: TA100, Metabolic Activation: NONE, Method: SUSPENSION/PLATE); “active; positive” (Test System: AMES SALMONELLA TYPHIMURIUM, Strain/Indicator: TA100, Metabolic Activation: RAT, LIVER, S-9, AROCLOR 1254 (10%), Method: PREINCUBATION); “active; positive” (Test System: AMES SALMONELLA TYPHIMURIUM, Strain/Indicator: TA100, Metabolic Activation: RAT, LIVER, S-9, AROCLOR 1254, Method: FLASK VAPORIZATION); “active; positive” under setting [4]; “active; positive” (Test System: AMES SALMONELLA TYPHIMURIUM, Strain/Indicator: TA1535, Metabolic Activation: HAMSTER, LIVER, S-9, AROCLOR 1254 (10%), Method: PREINCUBATION). Also, the mutagenic call reads like this: (Test System: AMES SALMONELLA TYPHIMURIUM, Strain/Indicator: TA1535, Metabolic Activation: NONE, Method: FLASK VAPORIZATION) “active; positive”; under setting [2], “active; positive”; under setting [5], “active; positive”; (Test System: AMES SALMONELLA TYPHIMURIUM, Strain/Indicator: TA1535, Metabolic Activation: NONE, Method: SUSPENSION/PLATE) “active; positive”; (Test System: AMES SALMONELLA TYPHIMURIUM, Strain/Indicator: TA1535, Metabolic Activation: RAT, LIVER, S-9, AROCLOR 1254 (10%), Method: PREINCUBATION) “active; positive”; (Test System: AMES SALMONELLA TYPHIMURIUM, Strain/Indicator: TA1535, Metabolic Activation: RAT, LIVER, S-9, AROCLOR 1254, Method: FLASK VAPORIZATION) “active; positive”. The mutagenic call under setting [6] was “active; positive”; the mutagenic call (Test System: Ames Salmonella typhimurium, Strain/Indicator: YG7108, Metabolic Activation: None, Method: Standard plate) was “active; positive”; the mutagenic call under setting [7] is “active; positive”.
